Assay results from patent US12600723B2, “Tetracyclic compounds as DGK inhibitors” (Incyte Corporation, priority 2022, dated 2026).

Key:
DGKζ = target: T1, DGKζ (Homo sapiens, UniProt Q13574); assay: In vitro DGKζ inhibition assay (ADP-Glo); format: biochemical; conditions: His-tagged human recombinant DGKζ 0.4 nM, 30 μM ATP, 20 μM DLG, 90 minute incubation
T1 construct: His; purchased Signal Chem D30-10H
Protocol: (§1) The DGKα and DGKζ biochemical reactions were performed using His-tagged human recombinant enzymes (Signal Chem, DGKα, #D21-10BH; DGKζ, #D30-10H)) and DLG (Dilauroyl-sn-glycerol) lipid substrate (Signal Chem, #D430-59). ADP-Glo assay was performed using ADP-Glom kinase Assay kit (Promega, #V9104). The reactions were carried out in assay buffer containing 40 mM Tris, pH 7.5, 0.1% CHAPS, 0.1% Prionex, 40 mM NaCl, 5 mM MgCl2, 1 mM CaCl2), and 1 mM DTT. DGKα reactions contained 0.1 nM DGKα, 50 μM ATP, and 20 μM DLG. And DGKζ reactions contained 0.4 nM DGKζ, 30 μM ATP, and 20 μM DLG.
(§2) For compound inhibition studies, 40 nL test compound in DMSO was added to wells of white polystyrene plates in 384-well (Greiner, #784075) or 1536-well format (Greiner, #782075). Compounds were added with top concentration of 2 mM with 11 point, 3-fold dilution series. Enzyme solution (contains 2×DGK enzyme concentration in 1× assay buffer) was added to the plate in 2 μL/well volume, followed by 2 μL/well of substrate solution (contains 2× concentration of ATP and DLG substrate in 1× assay buffer). Plates were then centrifuged for 1 min at 1200 RPM and sealed or lidded. For 4 μL reaction volume, test compounds were therefore diluted 100× to final top concentration of 20 μM. After 90 minute incubation, reactions were quenched by addition of 2 μL/well Promega ADP-Glo Reagent, followed by centrifugation and lidding. After 60 min incubation, 2 μL/well Promega Kinase Detection Reagent was added, plates centrifuged, and incubated for 30 min. Plates were then read using Luminescence method on BMG PHERAstar FSX plate reader. Percent inhibition was calculated and IC50s were determined using 4-parameter fit in Genedata Screener. Labcyte Echo acoustic dispenser was used for compound addition, and Formulatrix Tempest liquid handler was used for all reagent dispenses.

DGKα = target: T2, DGKα (Homo sapiens, UniProt P23743); assay: In vitro DGKα inhibition assay (ADP-Glo); format: biochemical; conditions: His-tagged human recombinant DGKα 0.1 nM, 50 μM ATP, 20 μM DLG, 90 minute incubation
T2 construct: His; purchased Signal Chem D21-10BH
T2 sequence (P23743 whole entry): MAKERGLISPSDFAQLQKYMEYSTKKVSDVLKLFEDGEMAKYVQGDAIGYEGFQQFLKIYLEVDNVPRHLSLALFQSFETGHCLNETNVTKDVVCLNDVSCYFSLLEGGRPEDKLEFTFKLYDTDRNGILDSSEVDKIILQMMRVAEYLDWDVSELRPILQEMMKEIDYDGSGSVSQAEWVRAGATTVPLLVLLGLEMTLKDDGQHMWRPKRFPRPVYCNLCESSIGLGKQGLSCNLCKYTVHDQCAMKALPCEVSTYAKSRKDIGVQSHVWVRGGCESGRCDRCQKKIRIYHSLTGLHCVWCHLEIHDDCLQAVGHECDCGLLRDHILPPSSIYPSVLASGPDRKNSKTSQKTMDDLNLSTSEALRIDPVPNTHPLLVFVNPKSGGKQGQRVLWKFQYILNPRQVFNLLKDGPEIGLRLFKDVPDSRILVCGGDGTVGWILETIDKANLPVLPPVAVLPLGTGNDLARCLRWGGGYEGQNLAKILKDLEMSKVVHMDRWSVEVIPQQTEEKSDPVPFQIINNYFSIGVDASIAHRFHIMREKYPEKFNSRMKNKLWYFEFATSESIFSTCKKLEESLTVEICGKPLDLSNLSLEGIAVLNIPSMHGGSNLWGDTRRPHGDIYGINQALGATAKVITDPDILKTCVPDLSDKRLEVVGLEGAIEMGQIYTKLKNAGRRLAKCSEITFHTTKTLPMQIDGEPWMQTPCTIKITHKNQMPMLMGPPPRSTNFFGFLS
Protocol: as §1, §2

T1 sequence (Q13574 whole entry): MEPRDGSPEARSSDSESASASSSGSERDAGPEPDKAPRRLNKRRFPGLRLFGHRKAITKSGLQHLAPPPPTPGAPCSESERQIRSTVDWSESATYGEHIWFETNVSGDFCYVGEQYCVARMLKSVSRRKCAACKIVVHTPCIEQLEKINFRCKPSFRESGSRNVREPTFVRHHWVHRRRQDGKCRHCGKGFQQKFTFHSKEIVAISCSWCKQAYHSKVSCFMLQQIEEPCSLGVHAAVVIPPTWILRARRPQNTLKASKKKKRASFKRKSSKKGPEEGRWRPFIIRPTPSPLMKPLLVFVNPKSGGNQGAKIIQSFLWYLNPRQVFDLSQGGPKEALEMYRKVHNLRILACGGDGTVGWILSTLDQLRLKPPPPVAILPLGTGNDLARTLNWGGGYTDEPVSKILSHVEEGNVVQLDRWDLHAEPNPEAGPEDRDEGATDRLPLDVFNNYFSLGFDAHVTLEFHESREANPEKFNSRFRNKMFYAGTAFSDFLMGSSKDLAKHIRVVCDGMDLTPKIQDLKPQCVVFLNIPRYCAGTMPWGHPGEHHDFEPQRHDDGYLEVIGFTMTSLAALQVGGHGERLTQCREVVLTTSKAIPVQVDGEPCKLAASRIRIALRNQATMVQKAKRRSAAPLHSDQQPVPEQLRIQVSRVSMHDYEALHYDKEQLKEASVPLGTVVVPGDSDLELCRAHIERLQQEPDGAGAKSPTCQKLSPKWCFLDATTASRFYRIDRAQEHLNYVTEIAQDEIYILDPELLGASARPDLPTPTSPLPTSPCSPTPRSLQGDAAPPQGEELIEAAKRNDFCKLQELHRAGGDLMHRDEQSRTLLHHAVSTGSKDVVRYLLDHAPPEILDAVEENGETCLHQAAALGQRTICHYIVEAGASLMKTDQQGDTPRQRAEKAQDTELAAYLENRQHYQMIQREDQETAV

Row | SMILES | IC50 (DGKζ) | IC50 (DGKα)
1 | C[C@@H]1CN2c3c(c(=O)n(C)c4ccc(C#N)nc34)N(C)C(=O)[C@H]2CN1C(c1ccc(F)cc1)c1ccc(F)cc1 [Example 1, (8aR,11R)-10-(Bis(4-fluorophenyl)methyl)-5,7,11-trimethyl-6,8-dioxo-5,7,8,8a,9,10,11,12-octahydro-6H-pyrazino[1′,2′:4,5]pyrazino[2,3-c][1,5]naphthyridine-2-carbonitrile] | 200 to 2000 nM | ≤ 40 nM
2 | COCCN1C(=O)[C@H]2CN(C(c3ccc(F)cc3)c3ccc(F)cc3)[C@H](C)CN2c2c1c(=O)n(C)c1ccc(C#N)nc21 [Example 2, (8aR,11R)-10-(Bis(4-fluorophenyl)methyl)-7-(2-methoxyethyl)-5,11-dimethyl-6,8-dioxo-5,7,8,8a,9,10,11,12-octahydro-6H-pyrazino[1′,2′:4,5]pyrazino[2,3-c][1,5]naphthyridine-2-carbonitrile] | 200 to 2000 nM | 40 to 200 nM
3 | C[C@@H]1CN2c3c(c(=O)n(C)c4ccccc34)N(C)C(=O)[C@H]2CN1C(c1ccc(F)cc1)c1ccc(F)cc1 [Example 3, (2R,4aR)-3-(Bis(4-fluorophenyl)methyl)-2,6,8-trimethyl-2,3,4,4a,6,8-hexahydro-1H-pyrazino[1′,2′:4,5]pyrazino[2,3-c]quinoline-5,7-dione] | > 2000 nM | ≤ 40 nM
4 | C[C@@H]1CN2c3c(c(=O)n(C)c4ccc(F)nc34)N(C)C(=O)[C@H]2CN1C(c1ccc(F)cc1)c1ccc(F)cc1 [Example 4, (8aR,11R)-10-(Bis(4-fluorophenyl)methyl)-2-fluoro-5,7,11-trimethyl-5,7,9,10,11,12-hexahydro-6H-pyrazino[1′,2′:4,5]pyrazino[2,3-c][1,5]naphthyridine-6,8(8aH)-dione] | 200 to 2000 nM | ≤ 40 nM
5 | Cc1ccc2c(n1)c1c(c(=O)n2C)N(C)C(=O)[C@H]2CN(C(c3ccc(F)cc3)c3ccc(F)cc3)[C@H](C)CN12 [Example 5, (8aR,11R)-10-(Bis(4-fluorophenyl)methyl)-2,5,7,11-tetramethyl-5,7,9,10,11,12-hexahydro-6H-pyrazino[1′,2′:4,5]pyrazino[2,3-c][1,5]naphthyridine-6,8(8aH)-dione] | > 2000 nM | ≤ 40 nM
6 | C[C@@H]1CN2c3c(c(=O)n(C)c4ccc(CC#N)nc34)N(C)C(=O)[C@H]2CN1C(c1ccc(F)cc1)c1ccc(F)cc1 [Example 6, 2-((8aR,11R)-10-(Bis(4-fluorophenyl)methyl)-5,7,11-trimethyl-6,8-dioxo-5,7,8,8a,9,10,11,12-octahydro-6H-pyrazino[1′,2′:4,5]pyrazino[2,3-c][1,5]naphthyridin-2-yl)acetonitrile] | ≤ 40 nM | ≤ 40 nM

More lines, now with the values ahead:

Row | IC50 (DGKζ) | IC50 (DGKα) | SMILES
7 | > 2000 nM | ≤ 40 nM | COc1ccc2c(n1)c1c(c(=O)n2C)N(C)C(=O)[C@H]2CN(C(c3ccc(F)cc3)c3ccc(F)cc3)[C@H](C)CN12 [Example 7, (8aR,11R)-10-(Bis(4-fluorophenyl)methyl)-2-methoxy-5,7,11-trimethyl-5,7,9,10,11,12-hexahydro-6H-pyrazino[1′,2′:4,5]pyrazino[2,3-c][1,5]naphthyridine-6,8(8aH)-dione]
8 | > 2000 nM | ≤ 40 nM | C[C@@H]1CN2c3c(c(=O)n(C)c4ccc(-c5cnn(C)c5)nc34)N(C)C(=O)[C@H]2CN1C(c1ccc(F)cc1)c1ccc(F)cc1 [Example 8, (8aR,11R)-10-(Bis(4-fluorophenyl)methyl)-5,7,11-trimethyl-2-(1-methyl-1H-pyrazol-4-yl)-5,7,9,10,11,12-hexahydro-6H-pyrazino[1′,2′:4,5]pyrazino[2,3-c][1,5]naphthyridine-6,8(8aH)-dione]
9 | > 2000 nM | ≤ 40 nM | C[C@@H]1CN2c3c(c(=O)n(C)c4ccc(=O)[nH]c34)N(C)C(=O)[C@H]2CN1C(c1ccc(F)cc1)c1ccc(F)cc1 [Example 9, (8aR,11R)-10-(Bis(4-fluorophenyl)methyl)-5,7,11-trimethyl-5,7,9,10,11,12-hexahydro-1H-pyrazino[1′,2′:4,5]pyrazino[2,3-c][1,5]naphthyridine-2,6,8(8aH)-trione]
